{"source": "patent US10189858B2", "about": "“Deuterium-enriched isoindolinonyl-piperidinonyl conjugates and oxoquinazolin-3(4H)-yl-piperidinonyl conjugates and methods of treating medical disorders using same” (DeuteRx, LLC, priority 2015, dated 2019)", "experiment": "Deuterium/hydrogen (D/H) exchange in deuterium-enriched dBET1 in PBS (HPLC/UV and LC/MS)", "assay_type": "physicochemical", "details": "PBS pH 7.4, 25° C.", "procedure": "In order to evaluate the stability against racemization provided by deuterium enrichment at the racemizable chiral center of the glutarimide portion of dBET1, a sample of racemic, deuterium-enriched dBET1 from Example 1 (i.e., D-dBET1 from Example 1) was incubated in PBS (pH=7.4) at 25° C. in the presence of ethyl paraben as an internal standard. A 20 μL solution of racemic, deuterium-enriched dBET1 (D-dBET1), aliquoted from 21.6 mg dissolved in 1 mL DMSO, was added to 4 mL of PBS (pH=7.4). The reaction was performed in duplicate. Aliquots were taken out at preset times and quenched with methanol in the presence of acetic acid (250 μL aliquot quenched with 500 μL 5% (v/v) acetic acid in methanol). The samples were analyzed by HPLC/UV (10 μL injection) and LC/MS (1 μL injection) using a reverse-phase column.\nSince the reaction is performed in an achiral medium, the kinetics of D/H exchange will be independent of the chirality of the starting material. As a result, separation of the enantiomers of D-dBET1 prior to the stability study is not required.\nA change in the ratio is expected if D/H exchange is observed since, for example, a peak at M+2, where M is the mass of the mono-deuterated isotopomer of dBET1, would by D/H exchange disappear and give a corresponding peak at M+1. Similarly, M+3 would give M+2, etc."}
{"smiles": "[2H]C1(N2C(=O)c3cccc(OCC(=O)NCCCCNC(=O)C[C@@H]4N=C(c5ccc(Cl)cc5)c5c(sc(C)c5C)-n5c(C)nnc54)c3C2=O)CCC(=O)NC1=O", "note": "(mixture of isomers) [D-dBET1]", "values": [{"measurement": "half-life at 0.107 mg/mL", "value": "> 24", "unit": "h"}, {"measurement": "area of chromatography peak normalized to internal standard (UV analysis)", "setting": "ethyl paraben internal standard", "value": "decreased as a function of the incubation time"}, {"measurement": "change of mass spectral isotopic distribution as a function of incubation time", "setting": "up to 24h, LC/MS", "value": "did not change significantly"}]}
